Experimental data from patent US6121055A, “Methods and devices for conducting specific binding assays” (priority 1995, dated 2000).
Where a name gives a salt, the structure may show the parent alone.

Experiments:
[1] = cited from earlier work; for SOLUBILITY (parts H2O): Table 1, numeric; for SOLUBILITY (in words): Table 1, water; for SOL. IN PARTS H2O: Table 2
[2] = tested on: anti-fragment antisera (rat TGF-a c-terminal peptide); experiment: TGF-a RIA: bioactive peptides & methyl cinnamate cushions; type: binding, rabbit
Protocol: (§1) All assays employed as assay vessels 0.4 L microcentrifuge tubes containing 0.25-0.3 L of cushion material. Labeled peptide was produced by chloramine Tiodination (specific activity ranged from 200-500 Ci/g). Unless otherwise specified, all solid phases were prepared using S. aureus suspensions. Centrifugations were for 30-60 seconds in a microcentrifuge at approximately 10,000×g.
(§2) (B) RIA Using Anti-Fragment Antisera and Bioactive Syntheticpeptide as Tracer and Reference Standard, with Methylcinnamate Cushions and Assay Reactants Predispensed.
(§3) Trans-methyl cinnamate (Table 1, item 11, Aldrich Chemical Co., St. Louis, Mo.) was melted by brief heating in a microwave oven just prior to dispensing into assay vessels. The cushion solidified spontaneously at room temperature. The solid phase was prepared as in (A) above in double strength assay buffer (including 4% NP-40 nonionic detergent). This suspension was stable at 4° C. for at least one year. Label cocktail (1.5 L) was prepared using 0.3 L 10×assay buffer (minus nonionic detergent), 0.6 L 10% NP-40, 0.58 L distilled water, and 30 L label concentrate (600,000 CPM) prepared from bioactive synthetic rat TGF-alpha (res. 1-50).
(§4) Into each assay was loaded 50 L of reference standard sample (bioactive, synthetic rat TGF-alpha, res. 1-50), 25 L of label cocktail, followed by 25 L of solid phase suspension. Where indicated, all assay reactants were predispensed and equilibrated for at least 3 days at 4 C prior to initiation of the assay by sample addition and mixing. After the indicated incubation periods, assay vessels were centrifuged and counted using radiation shields (FIG. 3, lacking disk 52) in an gamma counter (Abbott Model 200).
Two temperature and mixing treatments were compared with four incubation times. One treatment consisted of incubating at 32° C., just below the melting temperature of the cushion, and mixing at 15 minute intervals. The second treatment consisted of incubating at 40° C., above the melting temperature of the cushion, with mixing only at initiation of incubation (prior to warming). Both assays yielded low nonspecific binding, high specific binding, and high competition with reference standards, even after only 30 minutes of incubation.

[3] = tested on: anti-fragment antisera (rat TGF-a c-terminal peptide); experiment: TGF-a RIA: predispensed reactants & methyl cinnamate cushions; type: binding, rabbit
Protocol: as §1, §2, §3, §4

anti-digoxin antibody = experiment: Enzyme immunoassay for digoxin; type: binding, rabbit
Source text: An enzyme-labelled digoxin assay using the method of the present invention is adapted from a commercial digoxin kit (Immunotech, Allston, Mass.). The only changes in reagents are the inclusion of 20% sorbitol in the color developer solution, and the substitution of 50 microliters of Tachisorb-R (Behring Diagnostics, La Jolla, Calif.) for the 500 microliters of precipitating solution (goat-anti rabbit IgG) provided with the kit.
In two mL, screw-top microcentrifuge tubes (Sarstedt, Princeton, N.J.), 1 mL of sorbitol-color developer is dispensed, then overlaid with 0.4 mL of dibutyl phthalate. A 200 microliter assay mixture is prepared by adding 100 microliters of Tachisorb-R, 25 microliters of digoxin-enzyme (alkaline phosphatase) conjugate, 25 microliters of sample (serum-based standards), and 50 microliters of antibody solution. The assay is incubated at room temperature for 15 minutes, centrifuged two minutes at 10,000×g, and further incubated one hour for color development.
Color is measured at 400 nm in a Shimadzu Model UV-160 spectrophotometer. Because of the opacity of the polypropylene tubes, results for each tube are corrected for nonspecific absorbance at 500 nm.

[4] = tested on: antisera to synthetic hTGF-a (1-50); experiment: RIA for human TGF-a using antisera recognizing the complete, bioactive synthetic hormone; type: binding, rabbit
Protocol: (D) RIA for Human TGF-a Using Antisera Recognizing the Complete, Bioactive Synthetic Hormone Synthesis of hTGF-a (1-50) Peptide and Immunization:
The sequence of human TGF-a as determined by DeRynck et al. (Cell 38:287-297, 1985) was used to synthesize the low molecular weight form of the hormone (residues 1-50) using an automated instrument (Biosearch). The resultant peptide was used to immunize rabbits repeatedly using 0.5 mg of peptide at multiple sites.
The assay used reference standards and radio-iodinated tracer prepared from purified, bioactive synthetic rat TGF-alpha (Peninsula Laboratories, Belmont, Calif.). Label cocktail was prepared by mixing, in 1.5 L total volume, 300 L 10×buffer (0.5 M Hepes, 2 mg/L BSA, 0.2% sodium azide), 600 L 10% nonidet P-40 (Shell Oil Co.), 580 L distilled water, and 30 L of labeled peptide (rTGF-a, 800,000 CPM). The antibody suspension was prepared essentially as described in (A) above. To each 0.4 L tube containg 0.25-0.3 L cushions of butyl phthalate was added 25 L of label cocktail, 50 L of sample, and 25 L of antibody suspension. Where indicated, 10 L of 1M DTT (freshly dissolved in 0.5M sodium bicarbonate) was added to each assay mixture. After mixing, the tubes were incubated overnight at 4° C., then processed as described in (A) except that the detection instrument was a gamma counter (Abbott Model 200).

[5] = REDUCED WITH DTT, 1.25 nM in assay

COC(=O)c1ccccc1C(=O)OC [DIMETHYL PHTHALATE]
SOLUBILITY (parts H2O) [1]: 232 parts H2O

CCCCOC(=O)c1ccccc1C(=O)OCCCC [DIBUTYL PHTHALATE]
SOLUBILITY (parts H2O) [1]: 2500 parts H2O

CCOC(=O)CC(=O)C(=O)OCC [ETHYL OXALACETATE]
SOLUBILITY (in words) [1]: INSOL

COC(=O)CCC(=O)OC [DIMETHYL SUCCINATE]
SOLUBILITY (parts H2O) [1]: 120 parts H2O

COC(=O)C(=O)OC [DIMETHYL OXALATE]
SOLUBILITY (parts H2O) [1]: 17 parts H2O

CCCCOC(=O)C=Cc1ccccc1 [BUTYL CINNAMATE]
SOLUBILITY (parts H2O) [1]: 200 parts H2O

CCOC(=O)[C@H](O)[C@@H](O)C(=O)OCC [DIETHYL L-TARTRATE]
SOLUBILITY (in words) [1]: slightly

COC(=O)/C=C/c1ccccc1 [METHYL CINNAMATE]
SOLUBILITY (in words) [1]: ALMOST INSOL

synthetic rat TGF-alpha: bioactive, synthetic rat TGF-alpha, res. 1-50
% bound with 0.3 nM sample ([2]; 30 minutes, 32 C): 21.9% | % bound with 10 nM sample ([2]; 30 minutes, 32 C): 5.6% | % bound with 0.3 nM sample ([2]; 30 minutes, 40 C): 23.8% | % bound with 10 nM sample ([2]; 30 minutes, 40 C): 6.9% | % bound with 0.3 nM sample ([2]; 60 minutes, 32 C): 25.2% | % bound with 10 nM sample ([2]; 60 minutes, 32 C): 6.2% | % bound with 0.3 nM sample ([2]; 60 minutes, 40 C): 29.4% | % bound with 10 nM sample ([2]; 60 minutes, 40 C): 7.1% | % bound with 0.3 nM sample ([2]; 90 minutes, 32 C): 26.2% | % bound with 10 nM sample ([2]; 90 minutes, 32 C): 6.4% | % bound with 0.3 nM sample ([2]; 90 minutes, 40 C): 32.9% | % bound with 10 nM sample ([2]; 90 minutes, 40 C): 7.6% | % bound with 0.3 nM sample ([2]; 120 minutes, 32 C): 25.6% | % bound with 10 nM sample ([2]; 120 minutes, 32 C): 6.1% | % bound with 0.3 nM sample ([2]; 120 minutes, 40 C): 35.8% | % bound with 10 nM sample ([2]; 120 minutes, 40 C): 7.6% | label bound, CPM ([3]; 2.5 nM sample competition, total CPM = 7872): 642 CPM | % OF MAX. BOUND ([3]; 2.5 nM sample, 120 minutes, 37 C): 48.6% | LABEL BOUND ([3]; 2.5 nM sample, 120 minutes, 37 C, N = 6): 8.2%

COC(=O)c1ccco1 [METHYL FUROATE]
SOLUBILITY (in words) [1]: SLIGHTLY

COC(=O)c1ccccc1 [METHYL BENZOATE]
SOLUBILITY (in words) [1]: INSOL

C[C@H]1O[C@@H](O[C@H]2[C@@H](O)C[C@H](O[C@H]3[C@@H](O)C[C@H](O[C@H]4CC[C@@]5(C)[C@H](CC[C@@H]6[C@@H]5C[C@@H](O)[C@]5(C)[C@@H](C7=CC(=O)OC7)CC[C@]65O)C4)O[C@@H]3C)O[C@@H]2C)C[C@H](O)[C@@H]1O [digoxin]
ABSORBANCE AT 400 nm (corrected) (anti-digoxin antibody; sample 1.0): 150 | ABSORBANCE AT 400 nm (corrected) (anti-digoxin antibody; sample 2.0): 100 | ABSORBANCE AT 400 nm (corrected) (anti-digoxin antibody; sample 4.0): 80

CCOC(=O)c1ccccc1O [ETHYL SALICYLATE]
SOLUBILITY (in words) [1]: SLIGHTLY

CCOC(=O)CC(=O)OCC [DIETHYL MALONATE]
SOLUBILITY (parts H2O) [1]: 50 parts H2O

COC(=O)c1ccccc1O [METHYL SALICYLATE]
SOLUBILITY (parts H2O) [1]: 1500 parts H2O

CCCCOC(=O)CC(O)(CC(=O)OCCCC)C(=O)OCCCC [BUTYL CITRATE]
SOLUBILITY (in words) [1]: INSOL

CCOC(=O)CC(=O)c1ccccc1 [ETHYL BENZOYLACETATE]
SOLUBILITY (in words) [1]: INSOL

BIOLOGICAL TGFALPHA: BIOLOGICAL TGFALPHA, PARTIALLY PURIFIED FROM CULTURE FLUIDS (A375 CELLS)
PERCENTAGE OF MAXIMAL BINDING, corrected for nonspecific binding [4, 5]: 63.3% | PERCENTAGE OF MAXIMAL BINDING, corrected for nonspecific binding ([4]; UNREDUCED, 1.25 nM in assay): 89.7%

RTGF, BIOACTIVE: purified, bioactive synthetic rat TGF-alpha (Peninsula Laboratories)
PERCENTAGE OF MAXIMAL BINDING, corrected for nonspecific binding ([4]; REDUCED WITH DTT, 0.15 nM in assay): 93.8% | PERCENTAGE OF MAXIMAL BINDING, corrected for nonspecific binding ([4]; REDUCED WITH DTT, 0.32 nM in assay): 87.1% | PERCENTAGE OF MAXIMAL BINDING, corrected for nonspecific binding ([4]; REDUCED WITH DTT, 0.62 nM in assay): 79.9% | PERCENTAGE OF MAXIMAL BINDING, corrected for nonspecific binding [4, 5]: 74.4% | PERCENTAGE OF MAXIMAL BINDING, corrected for nonspecific binding ([4]; REDUCED WITH DTT, 2.50 nM in assay): 64.9% | PERCENTAGE OF MAXIMAL BINDING, corrected for nonspecific binding ([4]; REDUCED WITH DTT, 5.00 nM in assay): 47.3% | PERCENTAGE OF MAXIMAL BINDING, corrected for nonspecific binding ([4]; UNREDUCED, 0.15 nM in assay): 83.2% | PERCENTAGE OF MAXIMAL BINDING, corrected for nonspecific binding ([4]; UNREDUCED, 0.32 nM in assay): 77.3% | PERCENTAGE OF MAXIMAL BINDING, corrected for nonspecific binding ([4]; UNREDUCED, 0.62 nM in assay): 68.5% | PERCENTAGE OF MAXIMAL BINDING, corrected for nonspecific binding ([4]; UNREDUCED, 1.25 nM in assay): 58.5% | PERCENTAGE OF MAXIMAL BINDING, corrected for nonspecific binding ([4]; UNREDUCED, 2.50 nM in assay): 54.0% | PERCENTAGE OF MAXIMAL BINDING, corrected for nonspecific binding ([4]; UNREDUCED, 5.00 nM in assay): 45.7%

CCOC(=O)CC(C)=O [ETHYL ACETOACETATE]
SOLUBILITY (parts H2O) [1]: 35 parts H2O

[Br-].[Li+] [LITHIUM BROMIDE]
SOL. IN PARTS H2O [1]: .6 PARTS H2O

CCOC(=O)C=Cc1ccccc1 [ETHYL CINNAMATE]
SOLUBILITY (in words) [1]: INSOL

[Cl-].[Li+] [LITHIUM CHLORIDE]
SOL. IN PARTS H2O [1]: 1.3 PARTS H2O

CCOC(=O)/C=C\C(=O)OCC [DIETHYL MALEATE]
SOLUBILITY (in words) [1]: INSOL

CC(O)CO (stereo not drawn) [PROPYLENE GLYCOL]
miscibility ([1]; Table 2 comment): MISC WITH H2O, CHCL3
